Where “and” joins values, the source holds several entries; their conditions need not be identical. Equal values may be shown once. Marks after values point to notes of the source that are not given here.

Series [1] relates to RTX-induced mouse ear edema. In words: Inhibition of resiniferatoxin (RTX)-induced inflammation (edema) of the mouse ear. Conditions: for % Inhibition of Edema (RTX-induced edema in mouse ears): Dose 50 μg/ear; for activity in inhibition of RTX-induced edema: in words; for % Inh. Of Edema / Mean (difference, edema) / Difference (left ear minus right ear), single animals / Mean (edema): RTX 0.1 μg/ear; for ED50 for inhibition of RTX-induced edema: topical, with RTX. Type of series: in vivo. More on the design: Mean (edema): unit not given here. On the procedure: Induction of mouse ear edema can be conducted according to known methods. See Inoue, 1-f., N. Nagata, Y. Koshffiara (1993), which is herein incorporated by reference. Compounds to be tested for anti-neurogenic inflammatory activity are topically applied in acetone to the ears of mice in a solution that includes the edema-causing irritant resiniferatoxin (RTX). […] After a 30-minute incubation, the mice are sacrificed, the ears removed, and bores taken and weighed. Edema is measured by subtracting the weight of the right ear (acetone control) from the weight of the left ear (treated). Results are recorded as % decrease (inhibition) or % increase (potentiation) in edema relative to the control group edema.
Soritin B was tested for anti-neurogenic inflammatory activity by topically applying in acetone to the ears of mice in a solution that includes the edema-causing irritant resiniferatoxin (RTX) as provided above. See Inoue, 1-f., N. Nagata, Y. Koshffiara (1993), which is herein incorporated by reference. […] After a 30-minute incubation, the mice are sacrificed, the ears removed, and bores taken and weighed. Edema was measured by subtracting the weight of the right ear (acetone control) from the weight of the left ear (treated). Results were recorded as % decrease (inhibition) or % increase (potentiation) in edema relative to the control group edema.

In series [2] the test system is PMA-induced mouse ear edema. In words: Inhibition of PMA-induced inflammation (edema) of the mouse ear. Type of series: in vivo. More on the design: Mean (edema): unit not given here. Conditions: for ED50, topical inhibition of PMA-induced mouse ear edema: with PMA; for Difference (left ear minus right ear), single animals: listed as Compound I. On the procedure:
The test compound and a known inflammatory agent, phorbol myristate acetate (PMA), are topically applied simultaneously to the left ears of mice. Three hours and 20 minutes following application, the mice are sacrificed. Both left ears and right ears are removed and standard sized bores taken. Edema (inflammation) is measured as the difference in weight between left and right ears. See Van Arman, C. G. (1974) Clin. Pharmacol. Ther. 16:900-904, which is herein incorporated by reference.
Soritin B and a known inflammatory agent, phorbol myristate acetate (PMA), were topically applied simultaneously to the left ears of mice. Three hours and 20 minutes following application, the mice were sacrificed. Both left ears and right ears were removed and standard sized bores taken. Edema (inflammation) was measured as the difference in weight between left and right ears. See Van Arman, C. G. (1974) Clin. Pharmacol. Ther. 16:900-904, which is herein incorporated by reference.

The nature of series [3]: Soritin B assay: coloration in solution. Type of series: physicochemical. Conditions: dissolved in acetone.
The mark [4] stands for this setting: 50 μg/ear, listed as Compound I.
The mark [5] stands for this setting: 3.12 μg/ear, PMA 2.0 μg/ear, n = 15.
Setting [6] is: 6.25 μg/ear, PMA 2.0 μg/ear, n = 15.
[7] abbreviates: 12.5 μg/ear, PMA 2.0 μg/ear, n = 15.
Setting [8] is: 25 μg/ear, PMA 2.0 μg/ear, n = 15.

Regarding `c1ccc2c(Cc3c[nH]c4ccccc34)c[nH]c2c1` [HB-236, bis(3,3′indolyl)methane], in series [1], the “% Inhibition of Edema (RTX-induced edema in mouse ears)” value (shortened to “% Inhibition of Edema”) amounted to 59.1% and the “activity in inhibition of RTX-induced edema” value is given as “show activity”.
Turning to `O=CC(c1c[nH]c2ccccc12)c1c[nH]c2ccccc12` [HB-237, 2,2-bis(3,3′indolyl) acetaldehyde], in series [1], the “% Inhibition of Edema” value stood at 50.1% and the “activity in inhibition of RTX-induced edema” value is “show activity”.
Consider `C[C@]12CCC(=O)C=C1CC[C@@H]1[C@@H]2[C@@H](O)C[C@@]2(C)[C@H]1CC[C@]2(O)C(=O)CO` [Hydrocortisone, hydrocortisone, reference compound], for which the “ED50, topical inhibition of PMA-induced mouse ear edema” value (shortened to “ED50, topical inhibition”) in series [2] came to 20 μg/ear.
On the same count and under the same terms, the value for `COc1ccc2c(c1)c(CC(=O)O)c(C)n2C(=O)c1ccc(Cl)cc1` [Indomethacin, indomethacin, reference compound] was 250 μg/ear.
The same measure, in the same setting: the value for `CC1=C(CC/C(C)=C/CCC2=CC[C@H](C3=CC(=O)O[C@H]3O)O[C@H]2O)C(C)(C)CCC1` [Manoalide, manoalide, reference compound] was 100 μg/ear.
Regarding `O=C(O)C(c1c[nH]c2ccccc12)c1c[nH]c2ccccc12` [Soritin A, bis-(1H-indol-3-yl)-acetic acid], the “% Inh. Of Edema” value in series [2] (3.12 μg/ear, PMA 2 μg/ear) is 52.9%; in series [2] (6.25 μg/ear, PMA 2 μg/ear), 75.1%; in series [2] (12.5 μg/ear, PMA 2 μg/ear), 77.3%; in series [2] (25 μg/ear, PMA 2 μg/ear), 84.9%; in series [2] (50 μg/ear, PMA 2 μg/ear), 87.5%; in series [1] (3.12 μg/ear), 49.9%. The “% Inh. Of Edema” value in series [1] (6.25 μg/ear) is on record as 33.6%; in series [1] (12.5 μg/ear), 76.8%; in series [1] (25 μg/ear), 87.9%; in series [1] (setting [4]) it was 97.7%; in series [1] (50 μg/ear, listed as Soritin A (I)), “approximately 97.7%”. Further, the “Mean (difference, edema)” value in series [2] (3.12 μg/ear, PMA 2 μg/ear) turned out to be 6.4 mg; in series [2] (6.25 μg/ear, PMA 2 μg/ear), 3.4 mg; in series [2] (12.5 μg/ear, PMA 2 μg/ear) it was 3.1 mg; in series [2] (25 μg/ear, PMA 2 μg/ear), 2.1 mg; in series [2] (50 μg/ear, PMA 2 μg/ear), 1.7 mg; in series [1] (3.12 μg/ear) it was 6.0 mg. Also, the “Mean (difference, edema)” value in series [1] (6.25 μg/ear) came to 8.0 mg; in series [1] (12.5 μg/ear), 2.8 mg; in series [1] (25 μg/ear), 1.5 mg; in series [1] (50 μg/ear), 0.3 mg. The “Difference (left ear minus right ear), single animals” value in series [2] (3.12 μg/ear, PMA 2 μg/ear) was 4.0 mg and 8.7 mg (2×) and 4.3 mg; in series [2] (6.25 μg/ear, PMA 2 μg/ear), 1.2 mg and 4.5 mg and 2.4 mg and 5.5 mg; in series [2] (12.5 μg/ear, PMA 2 μg/ear), 4.1 mg and 1.9 mg and 1.2 mg and 5.2 mg; in series [2] (25 μg/ear, PMA 2 μg/ear) it was 1.7 mg and 3.4 mg and 0.4 mg and 2.8 mg; in series [2] (50 μg/ear, PMA 2 μg/ear) it was 1.6 mg and 2.2 mg and 1.3 mg and 1.7 mg; in series [1] (3.12 μg/ear, listed as Compound I), 6.0 mg (2×) and 6.6 mg and 7.1 mg and 4.1 mg and 6.3 mg. For the same molecule, the “Difference (left ear minus right ear), single animals” value in series [1] (6.25 μg/ear, listed as Compound I) was 6.0 mg and 11.2 mg and 7.3 mg and 10.1 mg and 8.3 mg and 5.0 mg; in series [1] (12.5 μg/ear, listed as Compound I), 3.8 mg and 3.6 mg and 3.1 mg and 1.1 mg and 1.7 mg and 3.4 mg; in series [1] (25 μg/ear, listed as Compound I), 4.1 mg and 0.2 mg and 2.1 mg and 0.6 mg and 0.3 mg; in series [1] (setting [4]) it was 0.1 mg and −0.2 mg (2×) and 1.5 mg. Also, the “potency in reducing PMA-induced mouse ear edema relative to known anti-inflammatories” value in series [2] (in words) was “greater potency than the known anti-inflammatories hydrocortisone, indomethacin, manoalide and topsentin”. In addition, in series [2], the “ED50, topical inhibition” value came to 1.3 μg/ear. Moreover, the “% Inhibition of Edema” value in series [1] stood at 97.7%. In series [1], the “ED50 for inhibition of RTX-induced edema” value came to 5.1 μg/ear.
`COC(=O)C(c1c[nH]c2ccccc12)c1c[nH]c2ccccc12` [Soritin B, bis-(1H-indol-3-yl)-acetic acid methyl ester]: the “% Inh. Of Edema” value in series [2] (setting [5]) came out at 14.6%; in series [2] (setting [6]), 17.1%; in series [2] (setting [7]), 27.1%; in series [2] (setting [8]) it was 50.0%; in series [1] (3.12 μg/ear, n = 15), 7.7%; in series [1] (6.25 μg/ear, n = 15) it was 34.3%. Besides, the “% Inh. Of Edema” value in series [1] (12.5 μg/ear, n = 15) came out at 61.0%; in series [1] (25 μg/ear, n = 14), 79.2%. The “Mean (edema)” value in series [2] (setting [5]) was 10.0**; in series [2] (setting [6]), 9.7**; in series [2] (setting [7]), 8.6*; in series [2] (setting [8]), 5.9*; in series [2] (50 μg/ear, PMA 2.0 μg/ear, n = 15), 3.4*; in series [1] (3.12 μg/ear, n = 15) it was 9.1. Moreover, the “Mean (edema)” value in series [1] (6.25 μg/ear, n = 15) was 6.5*; in series [1] (12.5 μg/ear, n = 15), 3.2*; in series [1] (25 μg/ear, n = 14), 1.7*; in series [1] (50 μg/ear, n = 15), 1.0*. For the same molecule, in series [2], the “ED50, topical inhibition” value is given as 24.2 μg/ear. In addition, in series [1], the “ED50 for inhibition of RTX-induced edema” value is 10.9 μg/ear. Further, the color in solution entry in series [3] was “light amber color”.
Take `O=C(c1nc(-c2c[nH]c3ccccc23)c[nH]1)c1c[nH]c2cc(O)ccc12` [Topsentin, topsentin, reference compound]: the “ED50, topical inhibition” value in series [2] amounted to 15 μg/ear.

Source of the values: US6589975B2, “Synthetic compounds for treatment of inflammation” (The Regents of the University of California, priority 1998, dated 2003).
